Reference: ChEMBL document CHEMBL1143038, “Highly oxygenated and unsaturated metabolites providing a diversity of hispidin class antioxidants in the medicinal mushrooms Inonotus and Phellinus” (Bioorg Med Chem, 2007)

Columns and labels:
Type in all cases: functional
[1] = system: Radical scavenging activity; assay: Antioxidant activity assessed as DPPH radical scavenging activity
[2] = Antioxidant activity assessed as ABTS radical scavenging activity
[3] = Antioxidant activity assessed as superoxide radical anion scavenging activity

Row | IC50 [1] [µM] | IC50 [2] [µM] | IC50 [3] [µM] | Compound
1 | 2.5 | 11.1 | 1.8 | CC(=O)/C(=C\c1ccc(O)c(O)c1)c1c(O)cc(/C=C/c2ccc(O)c(O)c2)oc1=O [INTERFUNGIN B]
2 | 6.3 | 14.1 | 2.7 | CC(=O)/C=C(O)/C(=C\c1ccc(O)c(O)c1)c1c(O)cc(/C=C/c2ccc(O)c(O)c2)oc1=O [INTERFUNGIN A]
3 | 3.7 | 25.9 | 2.2 | O=C(O)/C=C/c1ccc(O)c(O)c1 [CAFFEIC ACID]
4 | > 100 | 11.6 | 3.4 | VITAMIN E
5 | 3.7 | 11.1 | 3.1 | COC(=O)/C(=C\c1ccc(O)c(O)c1)c1c(O)cc(/C=C/c2ccc(O)c(O)c2)oc1=O [INTERFUNGIN C]
